According to patent publication US5409933A, “Quinoline derivatives and processes for preparing the same” (priority 1993, dated 1995):
Where a name gives a salt, the structure may show the parent alone. Read-outs that look alike come from different tables or passages of the source.

Key:
Assay in all cases: In Vitro Anti-Bacterial Activity Test (MIC, agar dilution)
Type in all cases: cell-based
[1] = test system: Staphylococcus aureus 503; details: Staphylococcus aureus 503, Muller-Hinton agar, 37° C., 18 hours
Experimental: (§1) The above in vitro antibacterial activity test was carried out in accordance with the agar culture medium dilution method (Hoechst 345) by using Muller-Hinton agar medium to determine the minimum inhibitory concentration (MIC).
(§2) The strains having 10^7 C.F.U./ml were inoculated on the culture medium, and the growth of the strains was observed after incubating them at 37° C. for 18 hours, in which ciprofloxacin was used as a control antibacterial agent. In this test, twenty typical strains were used.

[2] = test system: Pseudomonas aeruginosa 1771M; details: Muller-Hinton agar, 37° C.
Experimental: as §1, §2

[3] = test system: Klebsiella aerogenes 1522E; details: Klebsiella aerogenes 1522E, Muller-Hinton agar, 37° C., 18 hours
Experimental: as §1, §2

Salmonella typhimurium = details: Salmonella typhimurium, Muller-Hinton agar, 37° C., 18 hours
Experimental: as §1, §2

[4] = test system: Streptococcus pyogenes 308A; details: Muller-Hinton agar, 37° C., 18 hours
Experimental: as §1, §2

Klebsiella oxytoca 1082E = details: Klebsiella oxytoca 1082E, Muller-Hinton agar, 37° C., 18 hours
Experimental: as §1, §2

Escherichia coli 1507E = details: Muller-Hinton agar, 37° C.
Experimental: as §1, §2

[5] = test system: Enterobacter cloacae 1321E
Experimental: as §1, §2

[6] = test system: Streptococcus faecium MD8b; details: Muller-Hinton agar, 37° C., 18 hours
Experimental: as §1, §2

Escherichia coli DC2 = test system: Escherichia coli DC2
Experimental: as §1, §2

[7] = test system: Staphylococcus aureus SG511; details: Staphylococcus aureus SG511, Muller-Hinton agar, 37° C., 18 hours
Experimental: as §1, §2

Escherichia coli DC0 = details: Muller-Hinton agar, 37° C., 18 hours
Experimental: as §1, §2

[8] = test system: Pseudomonas aeruginosa 1592E; details: Muller-Hinton agar, 37° C., 18 hours
Experimental: as §1, §2

Escherichia coli TEM = details: Muller-Hinton agar, 37° C.
Experimental: as §1, §2

[9] = test system: Staphylococcus aureus 285; details: Staphylococcus aureus 285, Muller-Hinton agar, 37° C., 18 hours
Experimental: as §1, §2

[10] = test system: Pseudomonas aeruginosa 9027; details: Muller-Hinton agar, 37° C., 18 hours
Experimental: as §1, §2

Enterobacter cloacae P99 = test system: Enterobacter cloacae P99
Experimental: as §1, §2

Escherichia coli 078 = test system: Escherichia coli 078
Experimental: as §1, §2

[11] = test system: Streptococcus pyogenes 77A
Experimental: as §1, §2

[12] = test system: Pseudomonas aeruginosa 1771; details: Pseudomonas aeruginosa 1771, Muller-Hinton agar, 37° C., 18 hours
Experimental: as §1, §2

[13] = Pseudomonas aeruginosa, 1771M, 18 h
[14] = Klebsiella aerogenes, 1522E, 18 h, read-out: MIC
[15] = Salmonella enterica, read-out: MIC
[16] = Enterobacter cloacae 1321E, Muller-Hinton agar, 37° C., 18 hours, read-out: MIC
[17] = Enterococcus faecium, read-out: MIC
[18] = Enterobacter cloacae, P99, 18 h
[19] = Escherichia coli 078, Muller-Hinton agar, 37° C., 18 hours, read-out: MIC
[20] = Streptococcus pyogenes, 77A, 18 h
[21] = Staphylococcus aureus, 285, 18 h, read-out: MIC
[22] = Streptococcus pyogenes 77A, Muller-Hinton agar, 37° C., 18 hours, read-out: MIC

Molecule	MIC ([1]; read-out: MIC)	MIC [2, 13]	MIC [3, 14]	MIC (Salmonella typhimurium; [15])	MIC ([4]; read-out: MIC)	MIC (Klebsiella oxytoca 1082E; read-out: MIC)	MIC (Escherichia coli 1507E; Escherichia coli, 1507E, 18 h)	MIC [5, 16]	MIC [6, 17]	MIC (Escherichia coli DC2; Escherichia coli, DC2, 18 h)	MIC ([7]; read-out: MIC)	MIC (Escherichia coli DC0; read-out: MIC)	MIC ([8]; read-out: MIC)	MIC (Escherichia coli TEM; Escherichia coli, 18 h)	MIC ([10]; read-out: MIC)	MIC (Enterobacter cloacae P99; [18])	MIC [11, 20]	MIC ([12]; read-out: MIC)	MIC [9, 21]	MIC (Escherichia coli 078; Escherichia coli, 078, 18 h)	other results
1-cyclopropyl-6-fluoro-8-chloro-7-(7-amino-5-azaspiro[2.4]hept-5-yl)-3-(2- nitroacetyl)-1,4-dihydro-4-oxoquinoline hydrochloride [Example 35]																					MIC [1]: 0.013 µg/mL; MIC ([2]; 18 hours): 0.098 µg/mL; MIC [3]: 0.013 µg/mL; MIC (Salmonella typhimurium): 0.013 µg/mL; MIC [4]: 0.195 µg/mL; MIC (Klebsiella oxytoca 1082E): < 0.002 µg/mL; MIC (Escherichia coli 1507E; 18 hours): 0.007 µg/mL; MIC ([5]; Enterobacter cloacae 1321E, Muller-Hinton agar, 37° C., 18 hours): 0.025 µg/mL; MIC [6]: 0.098 µg/mL; MIC (Escherichia coli DC2; Escherichia coli DC2, Muller-Hinton agar, 37° C., 18 hours): 0.049 µg/mL; MIC [7]: 0.025 µg/mL; MIC (Escherichia coli DC0): 0.098 µg/mL; MIC [8]: 0.781 µg/mL; MIC (Escherichia coli TEM; 18 hours): 0.013 µg/mL; MIC [9]: 0.025 µg/mL; MIC [10]: 0.781 µg/mL; MIC (Enterobacter cloacae P99; Enterobacter cloacae P99, Muller-Hinton agar, 37° C., 18 hours): 0.025 µg/mL; MIC (Escherichia coli 078; Escherichia coli 078, Muller-Hinton agar, 37° C., 18 hours): 0.007 µg/mL; MIC ([11]; Streptococcus pyogenes 77A, Muller-Hinton agar, 37° C., 18 hours): 0.098 µg/mL; MIC [12]: 0.391 µg/mL
O=C(C[N+](=O)[O-])c1cn(C2CC2)c2cc(N3CCNCC3)c(F)cc2c1=O [Example 4, 1-cyclopropyl-6-fluoro-7-(piperazin-1-yl)-3-(2-nitroacetyl)-1,4-dihydro-4-oxoquinoline hydrochloride]	0.781 µg/mL	0.098 µg/mL	0.013 µg/mL	0.007 µg/mL	3.12 µg/mL	< 0.002 µg/mL	0.007 µg/mL	< 0.002 µg/mL	0.781 µg/mL	0.391 µg/mL	0.195 µg/mL	0.195 µg/mL	0.195 µg/mL	0.013 µg/mL	0.195 µg/mL	0.007 µg/mL	0.781 µg/mL	0.195 µg/mL			MIC ([9]; hydrochloride): 0.391 µg/mL; MIC (Escherichia coli 078; [19]): < 0.002 µg/mL
O=C(C[N+](=O)[O-])c1cn(C2CC2)c2cc(N3CCNCC3)c(F)cc2c1=O [Example 5, 1-cyclopropyl-6-fluoro-7-(piperazin-1-yl)-3-(2-nitroacetyl)-1,4-dihydro-4-oxoquinoline trifluoroacetate]																					MIC ([2]; 18 hours, trifluoroacetate): 0.049 µg/mL; MIC ([3]; trifluoroacetate): 0.025 µg/mL; MIC (Escherichia coli 1507E; 18 hours, read-out: MIC): 0.013 µg/mL; MIC (Escherichia coli TEM; 18 hours, trifluoroacetate): 0.007 µg/mL; MIC ([9]; trifluoroacetate): 0.195 µg/mL
O=C(C[N+](=O)[O-])c1cn(C2CC2)c2c(F)c(N3CCNCC3)c(F)cc2c1=O [Example 6, 1-cyclopropyl-6,8-difluoro-7-(piperazin-1-yl)-3-(2-nitroacetyl)-1,4-dihydro-4-oxoquinoline hydrochloride]	0.391 µg/mL	0.049 µg/mL	0.007 µg/mL	< 0.002 µg/mL	3.12 µg/mL	< 0.002 µg/mL		< 0.002 µg/mL	0.781 µg/mL	0.098 µg/mL	0.098 µg/mL	0.195 µg/mL	0.195 µg/mL	< 0.002 µg/mL	0.391 µg/mL	< 0.002 µg/mL	0.781 µg/mL	0.195 µg/mL	0.195 µg/mL		MIC (Escherichia coli 1507E; 18 hours, read-out: MIC): < 0.002 µg/mL; MIC (Escherichia coli 078; [19]): < 0.002 µg/mL
CC1CN(c2c(F)cc3c(=O)c(C(=O)C[N+](=O)[O-])cn(C4CC4)c3c2F)CCN1 (centres unmarked) [Example 7, 1-cyclopropyl-6,8-difluoro-7-(3-methylpiperazin-1-yl)-3-(2-nitroacetyl)-1,4-dihydro-4-oxoquinoline hydrochloride]	0.391 µg/mL	0.391 µg/mL	0.391 µg/mL	0.098 µg/mL	1.56 µg/mL	< 0.002 µg/mL	0.025 µg/mL	0.013 µg/mL	0.781 µg/mL	0.391 µg/mL	0.391 µg/mL	0.391 µg/mL	0.781 µg/mL	0.195 µg/mL	0.781 µg/mL	0.391 µg/mL	0.781 µg/mL	1.56 µg/mL	0.391 µg/mL	0.049 µg/mL	
NC1CCN(c2nc3c(cc2F)c(=O)c(C(=O)C[N+](=O)[O-])cn3-c2ccc(F)cc2F)C1 (centres unmarked) [Example 8, 1-(2,4-difluorophenyl)-6-fluoro-7-(3-aminopyrrolidin-1-yl)-3-(2-nitroacetyl)-1,4-dihydro-4-oxo-1,8-naphthyridinehydrochloride]	0.025 µg/mL	0.049 µg/mL	0.007 µg/mL	0.007 µg/mL	0.781 µg/mL	< 0.002 µg/mL	0.007 µg/mL	< 0.002 µg/mL	0.391 µg/mL	0.013 µg/mL	0.049 µg/mL	0.195 µg/mL	0.195 µg/mL	< 0.002 µg/mL	0.391 µg/mL	< 0.002 µg/mL		0.391 µg/mL	0.025 µg/mL	0.007 µg/mL	MIC [11, 22]: 0.195 µg/mL
NC1CCN(c2cc3c(cc2F)c(=O)c(C(=O)C[N+](=O)[O-])cn3-c2ccc(F)cc2F)C1 (centres unmarked) [Example 9, 1-(2,4-difluorophenyl)-6-fluoro-7-(3-aminopyrrolidin-1-yl)-3-(2-nitroacetyl)-1,4-dihydro-4-oxoquinoline hydrochloride]	0.013 µg/mL	0.049 µg/mL	0.004 µg/mL	0.007 µg/mL	0.195 µg/mL	< 0.002 µg/mL	0.013 µg/mL		0.195 µg/mL	0.025 µg/mL	0.025 µg/mL	0.195 µg/mL	0.098 µg/mL	< 0.002 µg/mL	0.391 µg/mL	< 0.002 µg/mL		0.195 µg/mL	0.025 µg/mL	0.007 µg/mL	MIC ([5]; Enterobacter cloacae, 1321E, 18 h): 0.007 µg/mL; MIC [11, 22]: 0.195 µg/mL
CC1CN(c2cc3c(cc2F)c(=O)c(C(=O)C[N+](=O)[O-])cn3-c2ccc(F)cc2F)CCN1 (centres unmarked) [Example 10, 1-(2,4-difluorophenyl)-6-fluoro-7-(3-methylpiperazin-1-yl)-3-(2-nitroacetyl)-1,4-dihydro-4-oxoquinoline hydrochloride]	0.391 µg/mL	1.56 µg/mL	1.56 µg/mL	0.049 µg/mL	1.56 µg/mL	0.025 µg/mL	0.098 µg/mL	0.049 µg/mL	1.56 µg/mL	0.391 µg/mL	0.391 µg/mL	1.56 µg/mL	1.56 µg/mL	0.098 µg/mL	3.12 µg/mL	0.049 µg/mL	0.781 µg/mL	3.12 µg/mL	0.391 µg/mL	0.049 µg/mL	
CCOC(=O)C(C(=O)OCC)C(=O)c1cn(C2CC2)c2c(OC)c(N3CC[C@H](NC)C3)c(F)cc2c1=O [Example 59, 1-cyclopropyl-6-fluoro-8-methoxy-7-(3-3S-methylaminopyrrolidin-1-yl)-3-(2,2-diethoxycarbonylacetyl)-1,4-dihydro-4-oxoquinoline hydrochloride]	0.098 µg/mL	0.781 µg/mL	0.098 µg/mL	0.049 µg/mL	0.781 µg/mL	0.007 µg/mL	0.391 µg/mL	0.049 µg/mL	0.781 µg/mL	0.098 µg/mL	0.098 µg/mL	0.781 µg/mL		0.049 µg/mL	1.56 µg/mL	0.049 µg/mL	0.781 µg/mL	1.56 µg/mL	0.098 µg/mL	0.049 µg/mL	
